In ChEMBL document CHEMBL3400015, “Tertiary amides of Salinomycin: A new group of antibacterial agents against Bacillus anthracis and methicillin-resistant Staphylococcus epidermidis” (Bioorg Med Chem Lett, 2015):

What was measured:
Staphylococcus aureus [1] = experiment: Antimicrobial activity against Staphylococcus aureus ATCC 25923 after 18 hrs by twofold serial broth dilution method; assay type: functional; conditions: ATCC 25923, 18 h
Staphylococcus aureus [2] = experiment: Antimicrobial activity against Staphylococcus aureus ATCC 6538 after 18 hrs by twofold serial broth dilution method; assay type: functional; conditions: ATCC 6538, 18 h
Staphylococcus aureus [3] = experiment: Antimicrobial activity against Staphylococcus aureus […] after 18 hrs by twofold serial broth dilution method; assay type: functional
[4] = test system: Staphylococcus epidermidis; experiment: Antimicrobial activity against Staphylococcus epidermidis ATCC 35984 after 18 hrs by twofold serial broth dilution method; assay type: functional; conditions: ATCC 35984, 18 h
Escherichia coli [5] = experiment: Antimicrobial activity against Escherichia coli ATCC 10538 after 18 hrs by twofold serial broth dilution method; assay type: functional; conditions: ATCC 10538, 18 h
Escherichia coli [6] = experiment: Antimicrobial activity against Escherichia coli NCTC 8196 after 18 hrs by twofold serial broth dilution method; assay type: functional; conditions: NCTC 8196, 18 h
Pseudomonas aeruginosa [7] = experiment: Antimicrobial activity against Pseudomonas aeruginosa ATCC 15442 after 18 hrs by twofold serial broth dilution method; assay type: functional; conditions: ATCC 15442, 18 h
Pseudomonas aeruginosa [8] = experiment: Antimicrobial activity against Pseudomonas aeruginosa NCTC 6749 after 18 hrs by twofold serial broth dilution method; assay type: functional; conditions: NCTC 6749, 18 h
Bacillus anthracis = experiment: Antimicrobial activity against Bacillus anthracis 34F2 after 18 hrs by twofold serial broth dilution method; assay type: functional; conditions: 34F2, 18 h
Staphylococcus aureus [9] = experiment: Bactericidal activity against Staphylococcus aureus ATCC 25923 after 24 hrs; assay type: functional; conditions: ATCC 25923, 24 h, read-out: MBC99.9
Staphylococcus aureus [10] = experiment: Bactericidal activity against Staphylococcus aureus ATCC 6538 after 24 hrs; assay type: functional; conditions: ATCC 6538, 24 h, read-out: MBC99.9
Staphylococcus aureus [11] = experiment: Bactericidal activity against Staphylococcus aureus […] after 24 hrs; assay type: functional; conditions: read-out: MBC99.9
[12] = test system: Staphylococcus epidermidis; experiment: Bactericidal activity against Staphylococcus epidermidis ATCC 35984 after 24 hrs; assay type: functional; conditions: ATCC 35984, 24 h, read-out: MBC99.9
Escherichia coli [13] = experiment: Bactericidal activity against Escherichia coli ATCC 10538 after 24 hrs; assay type: functional; conditions: ATCC 10538, 24 h, read-out: MBC99.9
Escherichia coli [14] = experiment: Bactericidal activity against Escherichia coli ATCC 25922 after 24 hrs; assay type: functional; conditions: ATCC 25922, 24 h, read-out: MBC99.9
Escherichia coli [15] = experiment: Bactericidal activity against Escherichia coli NCTC 8196 after 24 hrs; assay type: functional; conditions: NCTC 8196, 24 h, read-out: MBC99.9
Pseudomonas aeruginosa [16] = experiment: Bactericidal activity against Pseudomonas aeruginosa ATCC 15442 after 24 hrs; assay type: functional; conditions: ATCC 15442, 24 h, read-out: MBC99.9
Pseudomonas aeruginosa [17] = experiment: Bactericidal activity against Pseudomonas aeruginosa ATCC 27853 after 24 hrs; assay type: functional; conditions: ATCC 27853, 24 h, read-out: MBC99.9
[18] = test system: Staphylococcus epidermidis; experiment: Antimicrobial activity against methicillin-resistant Staphylococcus epidermidis isolate 403/10 after 18 hrs by twofold serial broth dilution method; assay type: functional; conditions: isolate 403/10, 18 h
[19] = test system: Staphylococcus epidermidis; experiment: Antimicrobial activity against methicillin-resistant Staphylococcus epidermidis isolate 404/10 after 18 hrs by twofold serial broth dilution method; assay type: functional; conditions: isolate 404/10, 18 h
[20] = test system: Staphylococcus epidermidis; experiment: Antimicrobial activity against methicillin-resistant Staphylococcus epidermidis isolate 405/10 after 18 hrs by twofold serial broth dilution method; assay type: functional; conditions: isolate 405/10, 18 h
[21] = test system: Staphylococcus epidermidis; experiment: Antimicrobial activity against methicillin-resistant Staphylococcus epidermidis isolate 409/10 after 18 hrs by twofold serial broth dilution method; assay type: functional; conditions: isolate 409/10, 18 h
[22] = test system: Staphylococcus epidermidis; experiment: Antimicrobial activity against methicillin-resistant Staphylococcus epidermidis isolate 422/10 after 18 hrs by twofold serial broth dilution method; assay type: functional; conditions: isolate 422/10, 18 h
[23] = test system: Staphylococcus epidermidis; experiment: Antimicrobial activity against methicillin-resistant Staphylococcus epidermidis isolate 424/10 after 18 hrs by twofold serial broth dilution method; assay type: functional; conditions: isolate 424/10, 18 h
[24] = test system: Staphylococcus epidermidis; experiment: Antimicrobial activity against methicillin-resistant Staphylococcus epidermidis isolate 454/11 after 18 hrs by twofold serial broth dilution method; assay type: functional; conditions: isolate 454/11, 18 h
[25] = test system: Staphylococcus epidermidis; experiment: Antimicrobial activity against methicillin-resistant Staphylococcus epidermidis isolate 455/11 after 18 hrs by twofold serial broth dilution method; assay type: functional; conditions: isolate 455/11, 18 h
[26] = test system: Staphylococcus epidermidis; experiment: Antimicrobial activity against methicillin-resistant Staphylococcus epidermidis isolate 457/11 after 18 hrs by twofold serial broth dilution method; assay type: functional; conditions: isolate 457/11, 18 h
[27] = test system: Staphylococcus epidermidis; experiment: Antimicrobial activity against methicillin-resistant Staphylococcus epidermidis isolate 459/11 after 18 hrs by twofold serial broth dilution method; assay type: functional; conditions: isolate 459/11, 18 h
[28] = test system: Staphylococcus epidermidis; experiment: Antimicrobial activity against methicillin-resistant Staphylococcus epidermidis isolate 461/11 after 18 hrs by twofold serial broth dilution method; assay type: functional; conditions: isolate 461/11, 18 h
[29] = test system: Staphylococcus epidermidis; experiment: Antimicrobial activity against methicillin-resistant Staphylococcus epidermidis isolate 469/11 after 18 hrs by twofold serial broth dilution method; assay type: functional; conditions: isolate 469/11, 18 h
[30] = test system: Staphylococcus epidermidis; experiment: Antimicrobial activity against methicillin-resistant Staphylococcus epidermidis isolate 470/11 after 18 hrs by twofold serial broth dilution method; assay type: functional; conditions: isolate 470/11, 18 h
[31] = test system: Staphylococcus epidermidis; experiment: Bactericidal activity against methicillin-resistant Staphylococcus epidermidis isolate 403/10 after 24 hrs; assay type: functional; conditions: isolate 403/10, 24 h, read-out: MBC99.9
[32] = test system: Staphylococcus epidermidis; experiment: Bactericidal activity against methicillin-resistant Staphylococcus epidermidis isolate 404/10 after 24 hrs; assay type: functional; conditions: isolate 404/10, 24 h, read-out: MBC99.9
[33] = test system: Staphylococcus epidermidis; experiment: Bactericidal activity against methicillin-resistant Staphylococcus epidermidis isolate 405/10 after 24 hrs; assay type: functional; conditions: isolate 405/10, 24 h, read-out: MBC99.9
[34] = test system: Staphylococcus epidermidis; experiment: Bactericidal activity against methicillin-resistant Staphylococcus epidermidis isolate 409/10 after 24 hrs; assay type: functional; conditions: isolate 409/10, 24 h, read-out: MBC99.9
[35] = test system: Staphylococcus epidermidis; experiment: Bactericidal activity against methicillin-resistant Staphylococcus epidermidis isolate 422/10 after 24 hrs; assay type: functional; conditions: isolate 422/10, 24 h, read-out: MBC99.9
[36] = test system: Staphylococcus epidermidis; experiment: Bactericidal activity against methicillin-resistant Staphylococcus epidermidis isolate 424/10 after 24 hrs; assay type: functional; conditions: isolate 424/10, 24 h, read-out: MBC99.9
[37] = test system: Staphylococcus epidermidis; experiment: Bactericidal activity against methicillin-resistant Staphylococcus epidermidis isolate 454/11 after 24 hrs; assay type: functional; conditions: isolate 454/11, 24 h, read-out: MBC99.9
[38] = test system: Staphylococcus epidermidis; experiment: Bactericidal activity against methicillin-resistant Staphylococcus epidermidis isolate 455/11 after 24 hrs; assay type: functional; conditions: isolate 455/11, 24 h, read-out: MBC99.9
[39] = test system: Staphylococcus epidermidis; experiment: Bactericidal activity against methicillin-resistant Staphylococcus epidermidis isolate 460/11 after 24 hrs; assay type: functional; conditions: isolate 460/11, 24 h, read-out: MBC99.9
[40] = test system: Staphylococcus epidermidis; experiment: Bactericidal activity against methicillin-resistant Staphylococcus epidermidis isolate 469/11 after 24 hrs; assay type: functional; conditions: isolate 469/11, 24 h, read-out: MBC99.9
Bacillus subtilis [41] = experiment: Genotoxicity in rec-positive Bacillus subtilis H17 at 2 ug/9 mm disc after 24 hrs by disc diffusion method; assay type: toxicity, organism-based
Bacillus subtilis [42] = experiment: Genotoxicity in rec-negative Bacillus subtilis M45 at 2 ug/9 mm disc after 24 hrs by disc diffusion method; assay type: toxicity, organism-based

CC[C@@H](C(=O)[C@@H](C)[C@@H](O)[C@H](C)[C@@H]1O[C@@H]([C@@H](CC)C(=O)N(CCO)CCO)CC[C@@H]1C)[C@H]1O[C@]2(C=C[C@@H](O)[C@]3(CC[C@@](C)([C@H]4CC[C@](O)(CC)[C@H](C)O4)O3)O2)[C@H](C)C[C@@H]1C
28 mm: diameter of the inhibition zone (DIZ) (Bacillus subtilis [41])
128 µg/mL: MBC (Staphylococcus aureus [11]) | MBC [12] | MBC [31] | MBC [33] | MBC [35] | MBC [36] | MBC [37]
8 µg/mL: MIC [21]
4 µg/mL: MIC (Staphylococcus aureus [1]) | MIC (Staphylococcus aureus [2]) | MIC (Staphylococcus aureus [3]) | MIC [4] | MIC [18] | MIC [19] | MIC [23] | MIC [25] | MIC [26] | MIC [27] | MIC [28] | MIC [29] | MIC [30]
256 µg/mL: MBC (Staphylococcus aureus [9]) | MBC (Staphylococcus aureus [10]) | MBC [32] | MBC [34] | MBC [38] | MBC [39] | MBC [40]
29 mm: diameter of the inhibition zone (DIZ) (Bacillus subtilis [42])
2 µg/mL: MIC (Bacillus anthracis) | MIC [20] | MIC [22] | MIC [24]
> 256 µg/mL: MIC (Escherichia coli [5]) | MIC (Escherichia coli [6]) | MIC (Pseudomonas aeruginosa [7]) | MIC (Pseudomonas aeruginosa [8]) | MBC (Escherichia coli [13]) | MBC (Escherichia coli [14]) | MBC (Escherichia coli [15]) | MBC (Pseudomonas aeruginosa [16]) | MBC (Pseudomonas aeruginosa [17])
